Patent US20100105749A1, “CHEMICAL COMPOUNDS, PHARMACEUTICAL COMPOSITIONS AND METHODS” (SMITHKLINE BEECHAM CORPORATION, priority 2007, published 2010)

Test system: Cynomolgus monkeys
Test: Bilirubin Monkey Test
Assay type: in vivo
Description: The product of Example 4 was formulated in 5% DMSO: 2% Tween 80: 10% SBE-CD with 1 molar equiv of HCl at 6 mg/ml and dosed at 30 mg/kg. Cynomolgus monkeys (each group n=6) had baseline blood drawn at day 0 at 9 am. On day 1, the monkeys were fed their morning meal at 7 am. After 1 hour, all left over food was removed and fast was begun. There was twice a day oral dosing of compound or vehicle on day 1 and day 2 of the fast, on day 3 there was an oral dose the morning (8 am) before the blood draw (9 am). Food was returned to the monkeys at this point. Oral dosing occurred at approximately 8:00 a.m. and 4:00 p.m. administered by oral gavage. Serum chemistries were screened on baseline and end of treatment blood draws. Significant changes were detected in bilirubin levels. Bilirubin increased in the fasted state, as expected (total, direct, and indirect bilirubin changed 2.0-, 2.4- and 1.92-fold, respectively over baseline).

[1] = fasted cynomolgus monkeys, 30 mg/kg oral gavage twice a day, end of treatment (day 3) vs baseline
[2] = serum, 48 hr fast, 30 mg/kg oral twice a day, n=6

With `O=C(O)c1ccc2nc(NC(c3ccccc3)c3ccccc3)n(CCc3ccccc3)c2c1.O=S(=O)(O)O` [Example 4, 2-[(diphenylmethyl)amino]-1-(2-phenylethyl)-1H-benzimidazole-6-carboxylic acid sulfate] the “direct bilirubin change over baseline” value [1] was 4.71 fold, the “indirect bilirubin change over baseline” value [1] was 3.53 fold and the “total bilirubin change over baseline” value [1] was 3.74 fold. The “DBIL (direct bilirubin)” value [2] was 0.165 ± 0.01 mg/dL, the “IBIL (indirect bilirubin)” value [2] was 0.565 ± .036 mg/dL and the “TBIL (total bilirubin)” value [2] was 0.73 ± 0.04 mg/dL.
